According to patent US20170333591A9, “ABSORBENT ARTICLE COMPRISING MALODOR REDUCTION COMPOSITIONS” (The Procter & Gamble Company, priority 2014, published 2017):

Experiment: Log of liquid dish neat product liquid-air partition coefficient
Assay type: physicochemical
Settings: for Log of liquid dish neat product liquid-air partition coefficient (Comment Code K/L): code letter within the Comment Code cell

| Structure (SMILES) | Log of liquid dish neat product liquid-air partition coefficient (Comment Code K/L) | Comment Code: Log of liquid dish neat product liquid-air partition coefficient |
| --- | --- | --- |
| CCCCCC1C(=O)CCC1CC(=O)OC (stereo not shown) [Material 113] | K (Log of liquid dish neat product liquid-air partition coefficient greater than or equal to 7) | – |
| Cc1cccc(Oc2ccccc2)c1 [Material 114] | K (Log of liquid dish neat product liquid-air partition coefficient greater than or equal to 7) | – |
| CCOc1cc(COC)ccc1O [Material 115] | – | K (Log of liquid dish neat product liquid-air partition coefficient greater than or equal to 7) |
| COC(=O)C=Cc1ccccc1 [Material 117] | K (Log of liquid dish neat product liquid-air partition coefficient greater than or equal to 7) | – |
| C=CCc1ccc(OC)cc1 [Material 119] | K (Log of liquid dish neat product liquid-air partition coefficient greater than or equal to 7) | – |
| CC(=O)c1ccc2ccccc2c1 [Material 120] | K (Log of liquid dish neat product liquid-air partition coefficient greater than or equal to 7) | – |
| COC(C)(C)CCCC(C)C=O (stereo not shown) [Material 125] | – | K (Log of liquid dish neat product liquid-air partition coefficient greater than or equal to 7) |
| COC(C)(C)CCCC(C)CC=O (stereo not shown) [Material 126] | K (Log of liquid dish neat product liquid-air partition coefficient greater than or equal to 7) | – |
| CC(C)C1CCC(CO)CC1 (stereo not shown) [Material 133] | – | K (Log of liquid dish neat product liquid-air partition coefficient greater than or equal to 7) |
| CC(C=O)Cc1cccc(C(C)(C)C)c1 (stereo not shown) [Material 134] | K (Log of liquid dish neat product liquid-air partition coefficient greater than or equal to 7) | – |
| CC(C)=CCCC(C)=CCCc1ccncc1 [Material 135] | K (Log of liquid dish neat product liquid-air partition coefficient greater than or equal to 7) | – |
| C=CCCCCCCCC=CCC#N [Material 137] | K (Log of liquid dish neat product liquid-air partition coefficient greater than or equal to 7) | – |
| Cc1cccc(CC(C)(C)CO)c1 [Material 140] | K (Log of liquid dish neat product liquid-air partition coefficient greater than or equal to 7) | – |
| CC1OC(C)C2Cc3ccccc3C2O1 (stereo not shown) [Material 141] | K (Log of liquid dish neat product liquid-air partition coefficient greater than or equal to 7) | K (Log of liquid dish neat product liquid-air partition coefficient greater than or equal to 7) |
| CC1=CC2CC(C=O)C1CC2C(C)C (stereo not shown) [Material 142] | K (Log of liquid dish neat product liquid-air partition coefficient greater than or equal to 7) | – |
| CC/C=C\CCC1=CCCC1=O [Material 146] | K (Log of liquid dish neat product liquid-air partition coefficient greater than or equal to 7) | – |
| C=CC(C)(CCC=C(C)C)OC(=O)C(C)C (stereo not shown) [Material 149] | K (Log of liquid dish neat product liquid-air partition coefficient greater than or equal to 7) | – |
| C=CC(C)(CCC=C(C)C)OC=O (stereo not shown) [Material 150] | – | K (Log of liquid dish neat product liquid-air partition coefficient greater than or equal to 7) |
| C=CC(C)(CCC=C(C)C)OC(=O)CCC (stereo not shown) [Material 151] | – | K (Log of liquid dish neat product liquid-air partition coefficient greater than or equal to 7) |
| C=CC(C)(CCC=C(C)C)OC(C)=O (stereo not shown) [Material 154] | – | K (Log of liquid dish neat product liquid-air partition coefficient greater than or equal to 7) |
| C=CC1(C)CCC(C(C)(C)O)O1 (stereo not shown) [Material 155] | K (Log of liquid dish neat product liquid-air partition coefficient greater than or equal to 7) | – |
| C=CC1(C)CCC(C(C)(C)O)O1 (stereo not shown) [Material 156] | K (Log of liquid dish neat product liquid-air partition coefficient greater than or equal to 7) | – |
| C=CC(C)(O)CCC=C(C)C (stereo not shown) [Material 157] | – | K (Log of liquid dish neat product liquid-air partition coefficient greater than or equal to 7) |
| CC/C(C)=C/CC/C(C)=C\C#N [Material 158] | K (Log of liquid dish neat product liquid-air partition coefficient greater than or equal to 7) | – |

| Structure (SMILES) | Log of liquid dish neat product liquid-air partition coefficient (Comment Code K/L) | Comment Code: Log of liquid dish neat product liquid-air partition coefficient |
| --- | --- | --- |
| CC1=CCC(C(C)CC=O)CC1 (stereo not shown) [Material 159] | K (Log of liquid dish neat product liquid-air partition coefficient greater than or equal to 7) | – |
| Cc1ccc2c(c1)CC(C)(CO)C2 (stereo not shown) [Material 161] | K (Log of liquid dish neat product liquid-air partition coefficient greater than or equal to 7) | – |
| CC(C=O)Cc1ccc(C(C)(C)C)cc1 (stereo not shown) [Material 162] | K (Log of liquid dish neat product liquid-air partition coefficient greater than or equal to 7) | – |
| C=C(C)C1CC=C(C)C(O)C1 (stereo not shown) [Material 170] | K (Log of liquid dish neat product liquid-air partition coefficient greater than or equal to 7) | – |
| CCCCCCCCCCCCOC(C)=O [Material 175] | K (Log of liquid dish neat product liquid-air partition coefficient greater than or equal to 7) | – |
| CCCCCCCCCCCC=O [Material 178] | K (Log of liquid dish neat product liquid-air partition coefficient greater than or equal to 7) | – |
| C=C(OCC)C1C(C)(C)CC(=O)CC1(C)C [Material 182] | K (Log of liquid dish neat product liquid-air partition coefficient greater than or equal to 7) | – |
| C=C1[C@H]2CC[C@H](CO)[C@@]23CC[C@H](C3)C1(C)C [Material 183] | K (Log of liquid dish neat product liquid-air partition coefficient greater than or equal to 7) | K (Log of liquid dish neat product liquid-air partition coefficient greater than or equal to 7) |
| CC1(CO)CC1CC1CC2CC2(C)C1(C)C (stereo not shown) [Material 185] | K (Log of liquid dish neat product liquid-air partition coefficient greater than or equal to 7) | K (Log of liquid dish neat product liquid-air partition coefficient greater than or equal to 7) |
| CC1OCC(c2ccccc2)O1 (stereo not shown) [Material 190] | K (Log of liquid dish neat product liquid-air partition coefficient greater than or equal to 7) | – |
| CC1=CCC(C)C(C)C12C=CC(C)O2 (stereo not shown) [Material 192] | K (Log of liquid dish neat product liquid-air partition coefficient greater than or equal to 7) | – |
| CCCCCCCCCCCCCC(=O)OC(C)C [Material 196] | K (Log of liquid dish neat product liquid-air partition coefficient greater than or equal to 7) | – |
| CCCCCCCCCCCC(=O)OC(C)C [Material 197] | K (Log of liquid dish neat product liquid-air partition coefficient greater than or equal to 7) | – |
| CC1CCCCCCCCCCCCC(=O)C1 (stereo not shown) [Material 206] | K (Log of liquid dish neat product liquid-air partition coefficient greater than or equal to 7) | K (Log of liquid dish neat product liquid-air partition coefficient greater than or equal to 7) |
| CC(C)=CCCC1=CCC(C=O)CC1 (stereo not shown) [Material 211] | K (Log of liquid dish neat product liquid-air partition coefficient greater than or equal to 7) | – |
| CC=Cc1ccc(OC(C)=O)c(OC)c1 [Material 213] | – | K (Log of liquid dish neat product liquid-air partition coefficient greater than or equal to 7) |
| CC=Cc1ccc(O)c(OC)c1 [Material 214] | – | K (Log of liquid dish neat product liquid-air partition coefficient greater than or equal to 7) |
| CC(=O)[C@@]1(C)CC2=C(CCCC2(C)C)C[C@@H]1C [Material 215] | K (Log of liquid dish neat product liquid-air partition coefficient greater than or equal to 7) | K (Log of liquid dish neat product liquid-air partition coefficient greater than or equal to 7) |
| CCC(=O)OC1CC2CCC1(C)C2(C)C (stereo not shown) [Material 228] | K (Log of liquid dish neat product liquid-air partition coefficient greater than or equal to 7) | – |
| CC(C)C(=O)OC1CC2CCC1(C)C2(C)C (stereo not shown) [Material 229] | K (Log of liquid dish neat product liquid-air partition coefficient greater than or equal to 7) | K (Log of liquid dish neat product liquid-air partition coefficient greater than or equal to 7) |
| CC1C2CC(CC2C2CCC(O)CC2)C1(C)C (stereo not shown) [Material 230] | K (Log of liquid dish neat product liquid-air partition coefficient greater than or equal to 7) | K (Log of liquid dish neat product liquid-air partition coefficient greater than or equal to 7) |
| C=CCCCCCCCCC(=O)OCCC(C)C [Material 234] | K (Log of liquid dish neat product liquid-air partition coefficient greater than or equal to 7) | – |
| CCCCCCCC(=O)OCCC(C)C [Material 237] | – | K (Log of liquid dish neat product liquid-air partition coefficient greater than or equal to 7) |
| CCCCCCCCCCCC(=O)OCCC(C)C [Material 238] | K (Log of liquid dish neat product liquid-air partition coefficient greater than or equal to 7) | – |
